# Test results published in US20260241026A1, “THERAPEUTIC METHOD FOR LOW-DRUG-SENSITIVITY CANCERS BY ADMINISTRATION OF ANTI-MUC1 ANTIBODY-DRUG CONJUGATE” (priority 2023, published 2026).
# Columns and labels:
# [1] = tested on: lung cancer PDX model (NIBIO-NS1); assay: Antitumor test in lung cancer patient-derived xenograft model NIBIO-NS1; assay type: in vivo, female nude mice
# Description: NIBIO-NS1 was obtained as a lung cancer PDX model from the National Institute of Biomedical Innovation. A frozen tumor section of NIBIO-NS1 was thawed and subcutaneously transplanted to 5-week old female NSG mice (NOD. Cg-Prkdc Il2rg<tm1Wjl>/SzJ: purchased from Jackson Laboratory Japan, Inc.) using a trocar. Grown tumor was collected, cut into small pieces, and transplanted again to female nude mice (CAnN. Cg-Foxn1nu/CrlCrlj: purchased from Jackson Laboratory Japan, Inc.) using a trocar, followed by extended growth.
# The female nude mice with transplanted NIBIO-NS1 were grouped 10 days after transplantation when their average tumor volume became about 157 mm^3. […] Six mice per group were used in groups 1 and 2, and 12 mice were used in group 3.
# [2] = tested on: bladder cancer PDX model (NIBIO-K071); assay: Antitumor test in bladder cancer patient-derived xenograft model NIBIO-K071; assay type: in vivo, female nude mice
# Description: NIBIO-[…] was obtained as a bladder cancer patient-derived xenograft model (PDX model) from the National Institute of Biomedical Innovation. A frozen tumor section of NIBIO-[…] was thawed and subcutaneously transplanted to 4- to 6-week old female NSG mice (NOD. Cg-Prkdc Il2rg<tm1Wjl>/SzJ: purchased from Charles River Laboratories Japan, Inc.) using a trocar. Grown tumor was collected, cut into small pieces, and transplanted again to female NSG mice or female nude mice (CAnN. Cg-Foxn1nu/CrlCrlj: purchased from Charles River Laboratories Japan, Inc.) using a trocar, followed by extended growth. TA-MUC1-, Nectin-4-, and TROP2-positive findings were confirmed in the tumor of this model by immunohistochemical staining (IHC). An estimated tumor volume (ETV) was calculated as described below. Estimated tumor volume (volume,mm^3)=Major axis (mm)×Minor axis (mm)^2/2 The female nude mice with transplanted NIBIO-[…] were grouped 25 days after transplantation when their average tumor volume became about 200 mm^3. […] ABS buffer was administered to a Vehicle administration group. Six mice per group were used in all the groups. After initial administration, body weights and tumor sizes were measured twice a week, and estimated tumor volumes were calculated.
# [3] = tested on: human breast cancer cell line HCC70; assay: Antitumor test in model with transplanted breast cancer cell line HCC70 (Example 3); assay type: in vivo, female nude mouse
# Description: The mice were grouped 18 days after transplantation when their average tumor volume became about 165 mm^3. […] ABS buffer was administered to a Vehicle administration group. Six mice per group were used in all the groups.
# [4] = 10 mg/kg, QW × two doses (Days 0, 7)
# [5] = Day 21, 10 mg/kg, QW × 2, intravenous
substance,measurement,setting,value
"datopotamab deruxtecan [TROP2-DXd ADC, reference compound]",tumor course after regrouping of the TROP2-DXd ADC administration group,"[1]; 10 mg/kg on Day 11 to tumors pre-treated with TROP2-DXd ADC, up to Day 31 (TA-MUC1-DXd ADC) or Day 21 (TROP2-DXd ADC)",grew continuously
same,tumor regression effect,"[1]; Day 11, 10 mg/kg on Day 0, NIBIO-NS1",no tumor regression
same,ETV (mm^3) Mean,"[1]; Day 11, 10 mg/kg, Day 0, intravenous, NIBIO-NS1",453 mm^3
"enfortumab vedotin [Nectin-4-MMAE ADC, reference compound]",tumor regression,"[2]; 3 mg/kg, QW × three doses (Days 0, 7, 14)",did not reach tumor regression
same,ETV (mm^3) Mean,"[2]; Day 21, 3 mg/kg, QW × 3, intravenous",772 mm^3
"sacituzumab govitecan [TROP2-SN38 ADC, reference compound]",tumor regression,[3]; [4],no tumor regression
same,ETV (mm^3) Mean,[3]; [5],361 mm^3
same,tumor regression,[2]; [4],did not reach tumor regression
same,ETV (mm^3) Mean,[2]; [5],383 mm^3
